Measurements taken from patent US20220096516A1, “OLIGONUCLEOTIDE MOLECULE AND APPLICATION THEREOF IN TUMOR THERAPY” (Ractigen Therapeutics, priority 2019, published 2022).
d = 2'-deoxy (DNA); r = 2'-OH (RNA)

Test system: LHPP gene
Experiment: High-throughput screening of saRNAs targeting LHPP promoter: LHPP mRNA by one-step RT-qPCR in Huh7 cells
Assay type: cell-based, human
Conditions: 10 nM saRNA, 72 hours, relative to control (Mock)
Protocol: Human liver cancer cell line Huh7 was cultured in DMEM medium (Gibco), containing 10% of calf serum (Sigma-Aldrich) and 1% of penicillin/streptomycin (Gibco). The cells were cultured at 5% CO2 and 37° C. According to the instructions provided by the manufacturer, RNAiMax (Invitrogen, Carlsbad, Calif.) was used to transfect small activating RNAs at a concentration of 10 nM (unless otherwise specified).
At the end of transfection, the media were discarded, and each well was washed with 150 μL of PBS once. After discarding the PBS, 50 μL of cell lysis buffer (Takara) was added to each well and incubated at room temperature for 5 min. 1 μL of the resulted cell lysis was taken from each well and analyzed by qPCR on an ABI 7500 fast real-time PCR system (Applied Biosystems) using a one-step TB Green™ PrimeScrip™ RT-PCR kit II (Takara, RR086A) Each transfection sample was repeatedly amplified in 3 replicate wells.
Reaction conditions were as follows: reverse transcription reaction (stage 1): 5 min at 42° C., 10 s at 95° C.; PCR reaction (stage 2): 5 s at 95° C., 20 s at 60° C., 45 cycles of amplification. HPRT1 and TBP were used as internal reference genes. PCR primers used for amplifying LHPP, HPRT1 and TBP genes are shown in Table 2, wherein LHPP was amplified using the LHPP F1/R1 primer pair.
To calculate the relative expression level (Erel) of LHPP (target gene) in an saRNA-transfected sample relative to control treatment (Mock), the Ct values of the target gene and the two internal reference genes were substituted into formula 1
Erel=2^(CtT^m^-CtT^s^)/((2^(CtR1^m^-CtR1^s^)*2^(CtR2^m^-CtR2^s^))^(1/2))
wherein CtTm was the Ct value of the target gene from the control (Mock) sample; CtTs was the Ct value of the target gene from the saRNA-treated sample; CtR1m was the Ct value of the internal reference gene 1 from the control (Mock) sample; CtR1s was the Ct value of the internal reference gene 1 from the saRNA-treated sample; CtR2m was the Ct value of the internal reference gene 2 from the control (Mock) sample; and CtR2s was the Ct value of the internal reference gene 2 from the saRNA-treated sample.
In order to obtain saRNAs capable of activating LHPP transcription, Huh7 cells were transfected with each of the aforementioned 290 saRNAs with a transfection concentration of 10 nM, and 72 hours later, according to the same method as described above, the cells were lysed and analyzed by one-step RT-qPCR to obtain the relative (compared with the control (Mock)) expression level of LHPP gene for each saRNA-treated sample. […] The observed maximum activation and maximum inhibition is 3.46 fold and 0.49 fold, respectively, saRNAs with activating activity are referred to as activating saRNAs, and the saRNAs with inhibiting activity are referred to as inhibiting saRNAs.

Substance	Fold of changes in relative LHPP mRNA expression level [fold]	Fold of changes in relative LHPP mRNA expression level (log2)
RAG7-187: saRNA duplex; sense UCUUGUCUCAAUUUGCCUUTT (SEQ ID NO: 123), antisense AAGGCAAAUUGAGACAAGATT (SEQ ID NO: 287) (sugars from the 5' end r19 d2, backbone not given here)	1.17	0.22
RAG7-111: saRNA duplex; sense GGGAAGAAAGCUUCCGAAATT (SEQ ID NO: 117), antisense UUUCGGAAGCUUUCUUCCCTT (SEQ ID NO: 281) (sugars from the 5' end r19 d2, backbone not given here)	1.18	0.24
RAG7-150: saRNA duplex; sense UGUUUUCUGCUUUUCCUGCTT (SEQ ID NO: 32), antisense GCAGGAAAAGCAGAAAACATT (SEQ ID NO: 196) (sugars from the 5' end r19 d2, backbone not given here)	1.48	0.56
RAG7-893: saRNA duplex; sense AUGUUGGACCAGAAGUAAATT (SEQ ID NO: 14), antisense UUUACUUCUGGUCCAACAUTT (SEQ ID NO: 178) (sugars from the 5' end r19 d2, backbone not given here)	1.63	0.70
RAG7-917: saRNA duplex; sense UCUCUUCUUUGAAAGCUCATT (SEQ ID NO: 64), antisense UGAGCUUUCAAAGAAGAGATT (SEQ ID NO: 228) (sugars from the 5' end r19 d2, backbone not given here)	1.32	0.40
RAG7-847: saRNA duplex; sense AAAGGUUCCGAGGGGCCAUTT (SEQ ID NO: 34), antisense AUGGCCCCUCGGAACCUUUTT (SEQ ID NO: 198) (sugars from the 5' end r19 d2, backbone not given here)	1.48	0.56
RAG7-741: saRNA duplex; sense CCUCCUGGGUUUAACGCAUTT (SEQ ID NO: 95), antisense AUGCGUUAAACCCAGGAGGTT (SEQ ID NO: 259) (sugars from the 5' end r19 d2, backbone not given here)	1.23	0.30
RAG7-833: saRNA duplex; sense GCCAUUGAGGAAACUCCUCTT (SEQ ID NO: 138), antisense GAGGAGUUUCCUCAAUGGCTT (SEQ ID NO: 302) (sugars from the 5' end r19 d2, backbone not given here)	1.14	0.20
RAG7-778: saRNA duplex; sense UGUAGCAUCGAGUGGUAUUTT (SEQ ID NO: 70), antisense AAUACCACUCGAUGCUACATT (SEQ ID NO: 234) (sugars from the 5' end r19 d2, backbone not given here)	1.29	0.37
RAG7-677: saRNA duplex; sense AUCUAUGCAGGGCUGUUAUTT (SEQ ID NO: 20), antisense AUAACAGCCCUGCAUAGAUTT (SEQ ID NO: 184) (sugars from the 5' end r19 d2, backbone not given here)	1.56	0.64
RAG7-853: saRNA duplex; sense AACUUGAAAGGUUCCGAGGTT (SEQ ID NO: 146), antisense CCUCGGAACCUUUCAAGUUTT (SEQ ID NO: 310) (sugars from the 5' end r19 d2, backbone not given here)	1.14	0.18
RAG7-828: saRNA duplex; sense UGAGGAAACUCCUCCCUUUTT (SEQ ID NO: 108), antisense AAAGGGAGGAGUUUCCUCATT (SEQ ID NO: 272) (sugars from the 5' end r19 d2, backbone not given here)	1.20	0.26
RAG7-96: saRNA duplex; sense GAAAAGGACACCGUUUCAGTT (SEQ ID NO: 105), antisense CUGAAACGGUGUCCUUUUCTT (SEQ ID NO: 269) (sugars from the 5' end r19 d2, backbone not given here)	1.21	0.27
RAG7-837: saRNA duplex; sense AGGGGCCAUUGAGGAAACUTT (SEQ ID NO: 109), antisense AGUUUCCUCAAUGGCCCCUTT (SEQ ID NO: 273) (sugars from the 5' end r19 d2, backbone not given here)	1.20	0.26
RAG7-896: saRNA duplex; sense GCUAUGUUGGACCAGAAGUTT (SEQ ID NO: 69), antisense ACUUCUGGUCCAACAUAGCTT (SEQ ID NO: 233) (sugars from the 5' end r19 d2, backbone not given here)	1.30	0.38
RAG7-832: saRNA duplex; sense CCAUUGAGGAAACUCCUCCTT (SEQ ID NO: 139), antisense GGAGGAGUUUCCUCAAUGGTT (SEQ ID NO: 303) (sugars from the 5' end r19 d2, backbone not given here)	1.14	0.19
RAG7-106: saRNA duplex; sense GAAAGCUUCCGAAAAGGACTT (SEQ ID NO: 150), antisense GUCCUUUUCGGAAGCUUUCTT (SEQ ID NO: 314) (sugars from the 5' end r19 d2, backbone not given here)	1.12	0.17
RAG7-176: saRNA duplex; sense UUUGCCUUUGACCUUUCUUTT (SEQ ID NO: 110), antisense AAGAAAGGUCAAAGGCAAATT (SEQ ID NO: 274) (sugars from the 5' end r19 d2, backbone not given here)	1.20	0.26
RAG7-670: saRNA duplex; sense CAGGGCUGUUAUCUGCAUATT (SEQ ID NO: 136), antisense UAUGCAGAUAACAGCCCUGTT (SEQ ID NO: 300) (sugars from the 5' end r19 d2, backbone not given here)	1.15	0.20
RAG7-894: saRNA duplex; sense UAUGUUGGACCAGAAGUAATT (SEQ ID NO: 37), antisense UUACUUCUGGUCCAACAUATT (SEQ ID NO: 201) (sugars from the 5' end r19 d2, backbone not given here)	1.45	0.54
RAG7-695: saRNA duplex; sense CAGGUCCUAUGCAUCCUCATT (SEQ ID NO: 54), antisense UGAGGAUGCAUAGGACCUGTT (SEQ ID NO: 218) (sugars from the 5' end r19 d2, backbone not given here)	1.36	0.44
RAG7-114: saRNA duplex; sense CCUGGGAAGAAAGCUUCCGTT (SEQ ID NO: 73), antisense CGGAAGCUUUCUUCCCAGGTT (SEQ ID NO: 237) (sugars from the 5' end r19 d2, backbone not given here)	1.28	0.36
